Experimental data reported in patent US10688200B2, “Urea-based prostate specific membrane antigen (PSMA) inhibitors for imaging and therapy” (Five Eleven Pharma Inc., priority 2015, dated 2020).

Assays:
PSMA [1] = target: T1, PSMA (Homo sapiens, UniProt Q04609); assay: In vitro binding signals of 68Ga labeled ligands in LNCaP tumor homogenates; conditions: Ga-68 radiolabeled ligands; for Total binding (TB): 37° C. 60 min; for Nonspecific binding (NSB): with 1a (PSMA11) 10 μM
T1 construct: 100 μL of freshly harvested PSMA cells; endogenous in cells; host or cells: 'PSMA cells' in the method

PSMA [2] = target: T1, PSMA; assay: In vitro competitive binding assay to determine IC50 to PSMA; conditions: LNCaP cells, [125I]MIP-1095 radioligand, 37° C. 1 h, mean±SD (n=4); read-out: PSMA binding affinities of cold ligands, IC50
Description: In Vitro Competitive Binding Assay to Determine IC50 to PSMA
In order to determine the binding affinity, in vitro competitive binding assays were performed. The LNCaP cells were incubated with 150,000 cpm of [^125I]MIP-1095 in the presence of 10 different concentrations of competing drugs. After incubation at 37° C. for 1 h, the bound and free radioactivity were separated by vacuum filtration through GF/B filter paper using a Brandel M-24R cell harvester followed by washing twice. Non-specific binding was defined with 10 μM PMPA. The cell bound radioactivity was measured with a gamma counter, 2470 Wizard^2 (Perkin-Elmer, IL). The IC50 values were calculated by fitting the data using a nonlinear regression algorithm (GraphPad Software).
The PSMA binding affinities were determined in a competitive binding assay using LNCaP human prostate carcinoma cells and the known high affinity PSMA ligand, [^125I]MIP-1095 as the radioligand. Data are expressed as mean±SD (n=4).

[3] = Biodistribution of radiotracers in normal mice; assay type: in vivo, mouse; conditions: normal male mice
Description: Normal CD-1 male mice were injected via the tail vein with 35 μCi of [^68Ga] radiotracers (0.2 nmole of ligand). […] All organs were removed and blood was also collected. Each organ was weighed, and the tissue radioactivity was measured with an automated gamma counter (Wizard, Perkin Elmer). The % ID/g was calculated by comparison with samples of a standard dilution of the initial dose. All measurements were corrected for decay.

[4] = test system: LNCaP (left shoulder) and PC-3 (right shoulder) tumor bearing nude mouse; assay: Small animal PET imaging with [68Ga]1a and [68Ga]4a; assay type: in vivo; conditions: 60 to 75 min after i.v. injection
Description: Male athymic mice (CD-1 nude, 5-6 weeks old) were obtained from Charles River, and were allowed to acclimatize at the vivarium for 1 week prior to implanting tumors. Mice were provided with food and water ad libitum. LNCaP tumors were induced on the left shoulder by sub-cutaneous (s.c.) injection of 5.0×10^6 cells in a 200 μL cell suspension of a 1:1 v/v mixture of media with reconstituted basement membrane (BD Matrigel™, Collaborative Biomedical Products Inc., Bedford, Mass.). Similarly, PC-3 tumors were induced on the right shoulder by s.c. injection of 2.0×10^6 cells. Palpable LNCaP tumors developed after a period of 4-5 weeks.
Dynamic small animal PET (APET) imaging studies of LNCaP (left shoulder) and PC-3 (right shoulder) tumor bearing nude mouse were performed with [^68Ga]1a and [^68Ga]4a. PET imaging studies were performed on a Phillips Mosaic small animal PET scanner, which has an imaging field of view of 11.5 cm. Under isoflurane anesthesia (1-2%, 1 L/min oxygen), the tumor-bearing nude mouse was injected with 0.5 mCi activity by an intravenous injection into the lateral tail vein. Data acquisition began at 30 min after the injection. Dynamic scans were conducted over a period of 1 h (5 min/frame; image voxel size 0.5 mm^3). Mouse was visually monitored for breathing, and a heating pad was used to maintain body temperature throughout the entire procedure. Images were reconstructed and a region of interest (ROI) analysis was performed using AMIDE software (http://amide.sourceforge.net/).
Representative animal PET images of LNCaP xenograft mice between 60 to 75 min after i.v. injection of [^68Ga]1a, and [^68Ga]4a are shown in FIGS. 3A-3F. […] FIGS. 3A-3F show sagittal, transaxial and coronal sections of APET images of nude mouse with LNCaP tumor at left shoulder and PC-3 tumor at right shoulder between 60 to 75 min post i.v. injection of [^68Ga]1a (FIGS. 3A-3C) and [^68Ga]4a (FIG. 3D-3F).

T1 sequence (Q04609 whole entry): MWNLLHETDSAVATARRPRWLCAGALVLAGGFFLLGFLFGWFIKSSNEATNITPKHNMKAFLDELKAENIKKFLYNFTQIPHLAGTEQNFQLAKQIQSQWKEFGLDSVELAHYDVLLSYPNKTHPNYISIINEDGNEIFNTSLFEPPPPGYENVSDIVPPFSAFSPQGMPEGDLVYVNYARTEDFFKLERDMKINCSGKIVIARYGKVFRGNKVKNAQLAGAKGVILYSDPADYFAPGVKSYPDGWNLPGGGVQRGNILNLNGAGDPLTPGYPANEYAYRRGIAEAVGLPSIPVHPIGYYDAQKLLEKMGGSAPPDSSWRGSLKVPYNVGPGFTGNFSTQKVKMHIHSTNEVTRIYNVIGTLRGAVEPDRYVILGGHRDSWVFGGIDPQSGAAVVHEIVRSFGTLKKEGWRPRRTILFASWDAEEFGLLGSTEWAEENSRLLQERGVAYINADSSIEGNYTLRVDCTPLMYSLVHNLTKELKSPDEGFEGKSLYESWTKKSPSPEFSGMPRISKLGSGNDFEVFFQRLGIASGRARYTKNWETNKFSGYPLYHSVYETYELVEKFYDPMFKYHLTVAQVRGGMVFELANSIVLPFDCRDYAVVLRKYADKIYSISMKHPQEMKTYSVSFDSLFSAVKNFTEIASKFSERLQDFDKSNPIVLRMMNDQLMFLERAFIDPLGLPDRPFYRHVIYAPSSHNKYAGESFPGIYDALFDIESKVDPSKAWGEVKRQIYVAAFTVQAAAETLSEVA

Structure (SMILES): O=C(O)CC[C@H](NC(=O)N[C@@H](CCCCNC(=O)CCCCCNC(=O)CCc1ccc(O)c(CN(CCN(CC(=O)O)Cc2cc(CCC(=O)NCCNC(=O)CN3CCN(CC(=O)O)CCN(CC(=O)O)CCN(CC(=O)O)CC3)ccc2O)CC(=O)O)c1)C(=O)O)C(=O)O [Compound 1g, (3S,7S)-22-(3-(((carboxymethyl)(2-((carboxymethyl)(2-hydroxy-5-(3-oxo-3-((2-(2-(4,7,10-tris(carboxymethyl)-1,4,7,10-tetraazacyclododecan-1-yl)acetamido)ethyl)amino)propyl)benzyl)amino)ethyl)amino)methyl)-4-hydroxyphenyl)-5,13,20-trioxo-4,6,12,19-tetraazadocosane-1,3,7-tricarboxylic acid]
- Specific binding (SB) SB = TB − NSB (PSMA [1]): 9.0
- Total binding (TB) (PSMA [1]): 10.5
- Nonspecific binding (NSB) (PSMA [1]): 1.5
- IC50 (PSMA [2]): 70.2 ± 29.1 nM

Structure (SMILES): O=C(O)CCc1ccc(O)c(CN(CCN(CC(=O)O)Cc2nc(CCC(=O)NCCCCCC(=O)NCCCC[C@H](NC(=O)N[C@@H](CCC(=O)O)C(=O)O)C(=O)O)ccc2O)CC(=O)O)n1 [Compound 2, (3S,7S)-22-(6-(((2-(((6-(2-Carboxyethyl)-3-hydroxypyridin-2-yl)methyl) (carboxymethyl)amino)ethyl)(carboxymethyl)amino)methyl)-5-hydroxypyridin-2-yl)-5,13,20-trioxo-4,6,12,19-tetraazadocosane-1,3,7-tricarboxylic acid]
- Specific binding (SB) SB = TB − NSB (PSMA [1]): 4.1
- Total binding (TB) (PSMA [1]): 9.2
- Nonspecific binding (NSB) (PSMA [1]): 5.1
- IC50 (PSMA [2]): 40.4 ± 18.3 nM

Structure (SMILES): O=C(O)CC[C@H](NC(=O)N[C@@H](CCCCNC(=O)CCCCCNC(=O)CCc1ccc(O)c(CN(CCN(CC(=O)O)Cc2nc(CCC(=O)NCCCCCC(=O)NCCCC[C@H](NC(=O)N[C@@H](CCC(=O)O)C(=O)O)C(=O)O)ccc2O)CC(=O)O)n1)C(=O)O)C(=O)O [Compound 3, (3S,3′S,7S,7′S)-22,22′-(6,6′-((Ethane-1,2-diylbis((carboxymethyl)azanediyl))bis(methylene))bis(5-hydroxypyridine-6,2-diyl))bis(5,13,20-trioxo-4,6,12,19-tetraazadocosane-1,3,7-tricarboxylic acid)]
- Specific binding (SB) SB = TB − NSB (PSMA [1]): 5.8
- Total binding (TB) (PSMA [1]): 10.0
- Nonspecific binding (NSB) (PSMA [1]): 4.2
- IC50 (PSMA [2]): 132 ± 11 nM

Structure (SMILES): O=C(O)CCc1ccc(O)c(CN(CCN(CC(=O)O)Cc2cc(CCC(=O)NCCCCCC(=O)NCCCC[C@H](NC(=O)N[C@@H](CCC(=O)O)C(=O)O)C(=O)O)ccc2O)CC(=O)O)n1 [Compound 4a, (3S,7S)-22-(3-(((2-(((6-(2-Carboxyethyl)-3-hydroxypyridin-2-yl)methyl)(carboxymethyl)amino)ethyl)(carboxymethyl)amino)methyl)-4-hydroxyphenyl)-5,13,20-trioxo-4,6,12,19-tetraazadocosane-1,3,7-tricarboxylic acid]
- Specific binding (SB) SB = TB − NSB (PSMA [1]): 12.0
- Total binding (TB) (PSMA [1]): 13.4
- Nonspecific binding (NSB) (PSMA [1]): 1.4
- IC50 (PSMA [2]): 67.4 ± 30.3 nM

Structure (SMILES): O=C(O)CCc1ccc(O)c(CN(CCN(CC(=O)O)Cc2nc(CCC(=O)NCCCCCC(=O)NCCCC[C@H](NC(=O)N[C@@H](CCC(=O)O)C(=O)O)C(=O)O)ccc2O)CC(=O)O)c1 [Compound 4b, (3S,7S)-22-(6-(((2-((5-(2-Carboxyethyl)-2-hydroxybenzyl)(carboxymethyl)amino)ethyl) (carboxymethyl)amino)methyl)-5-hydroxypyridin-2-yl)-5,13,20-trioxo-4,6,12,19-tetraazadocosane-1,3,7-tricarboxylic acid]
- Specific binding (SB) SB = TB − NSB (PSMA [1]): 8.8
- Total binding (TB) (PSMA [1]): 10.3
- Nonspecific binding (NSB) (PSMA [1]): 1.5
- IC50 (PSMA [2]): 40.5 ± 20.5 nM

Structure (SMILES): O=C(O)CC[C@H](NC(=O)N[C@@H](CCCCNC(=O)[C@H](Cc1ccccc1)NC(=O)COc1ccc(C[C@H](NC(=O)CNC(=O)CN2CCN(CC(=O)O)CCN(CC(=O)O)CCN(CC(=O)O)CC2)C(=O)O)cc1)C(=O)O)C(=O)O [Compound 5a, (4S,11S,15S)-4-Benzyl-1-(4-((S)-2-carboxy-2-(2-(2-(4,7,10-tris(carboxymethyl)-1,4,7,10-tetraazacyclododecan-1-yl)acetamido)acetamido)ethyl)phenoxy)-2,5,13-trioxo-3,6,12,14-tetraazaheptadecane-11,15,17-tricarboxylic acid.]
- Specific binding (SB) SB = TB − NSB (PSMA [1]): 2.83
- Total binding (TB) (PSMA [1]): 3.30
- Nonspecific binding (NSB) (PSMA [1]): 0.47
- IC50 (PSMA [2]): 36.1 ± 18.1 nM

Structure (SMILES): O=C(O)CCc1ccc(O)c(CN(CCN(CC(=O)O)Cc2cc(CCC(=O)NCCCCCC(=O)NCCCC[C@H](NC(=O)N[C@@H](CCC(=O)O)C(=O)O)C(=O)O)ccc2O)CC(=O)O)n1 [[^68Ga]4a, metal not drawn]
- Biodistribution: Blood ([3]; 2 min): 8.59 ± 0.82 % dose/g
- Biodistribution: Bone ([3]; 2 min): 2.33 ± 0.21 % dose/g
- Biodistribution: Brain ([3]; 2 min): 0.27 ± 0.04 % dose/g
- Biodistribution: Heart ([3]; 2 min): 3.62 ± 0.34 % dose/g
- Biodistribution: Kidney ([3]; 2 min): 60.7 ± 2.89 % dose/g
- Biodistribution: Liver ([3]; 2 min): 2.22 ± 0.23 % dose/g
- Biodistribution: Lung ([3]; 2 min): 5.45 ± 0.44 % dose/g
- Biodistribution: Muscle ([3]; 2 min): 2.68 ± 0.30 % dose/g
- Biodistribution: Pancreas ([3]; 2 min): 2.35 ± 0.12 % dose/g
- Biodistribution: Skin ([3]; 2 min): 2.84 ± 0.19 % dose/g
- Biodistribution: Spleen ([3]; 2 min): 3.64 ± 0.16 % dose/g
- Biodistribution: Blood ([3]; 30 min): 0.95 ± 0.33 % dose/g
- Biodistribution: Bone ([3]; 30 min): 0.37 ± 0.10 % dose/g
- Biodistribution: Brain ([3]; 30 min): 0.04 ± 0.01 % dose/g
- Biodistribution: Heart ([3]; 30 min): 0.56 ± 0.21 % dose/g
- Biodistribution: Kidney ([3]; 30 min): 148 ± 5.73 % dose/g
- Biodistribution: Liver ([3]; 30 min): 0.39 ± 0.12 % dose/g
- Biodistribution: Lung ([3]; 30 min): 1.55 ± 0.30 % dose/g
- Biodistribution: Muscle ([3]; 30 min): 0.61 ± 0.10 % dose/g
- Biodistribution: Pancreas ([3]; 30 min): 0.89 ± 0.12 % dose/g
- Biodistribution: Skin ([3]; 30 min): 0.99 ± 0.16 % dose/g
- Biodistribution: Spleen ([3]; 30 min): 3.51 ± 1.69 % dose/g
- Biodistribution: Blood ([3]; 60 min): 0.30 ± 0.03 % dose/g
- Biodistribution: Bone ([3]; 60 min): 0.24 ± 0.02 % dose/g
- Biodistribution: Brain ([3]; 60 min): 0.03 ± 0.00 % dose/g
- Biodistribution: Heart ([3]; 60 min): 0.31 ± 0.14 % dose/g
- Biodistribution: Kidney ([3]; 60 min): 181 ± 26.81 % dose/g
- Biodistribution: Liver ([3]; 60 min): 0.23 ± 0.01 % dose/g
- Biodistribution: Lung ([3]; 60 min): 1.18 ± 0.14 % dose/g
- Biodistribution: Muscle ([3]; 60 min): 0.35 ± 0.07 % dose/g
- Biodistribution: Pancreas ([3]; 60 min): 1.09 ± 0.27 % dose/g
- Biodistribution: Skin ([3]; 60 min): 0.45 ± 0.07 % dose/g
- Biodistribution: Spleen ([3]; 60 min): 2.83 ± 1.49 % dose/g
- Biodistribution: Blood ([3]; 120 min): 0.20 ± 0.10 % dose/g
- Biodistribution: Bone ([3]; 120 min): 0.23 ± 0.06 % dose/g
- Biodistribution: Brain ([3]; 120 min): 0.02 ± 0.00 % dose/g
- Biodistribution: Heart ([3]; 120 min): 0.21 ± 0.03 % dose/g
- Biodistribution: Kidney ([3]; 120 min): 128 ± 25.0 % dose/g
- Biodistribution: Liver ([3]; 120 min): 0.18 ± 0.05 % dose/g
- Biodistribution: Lung ([3]; 120 min): 0.83 ± 0.21 % dose/g
- Biodistribution: Muscle ([3]; 120 min): 0.20 ± 0.03 % dose/g
- Biodistribution: Pancreas ([3]; 120 min): 1.02 ± 0.26 % dose/g
- Biodistribution: Skin ([3]; 120 min): 0.30 ± 0.02 % dose/g
- Biodistribution: Spleen ([3]; 120 min): 2.83 ± 1.25 % dose/g
- LNCaP tumor visualization in PET images, in words [4]: clearly visualized
- PC-3 (PSMA negative) tumor uptake in PET images, in words [4]: did not show any uptakes
